Measured values taken from patent US20210161993A1, “Method for accelerated healing of burn wounds” (PVP LABS PTE. LTD., priority 2018, published 2021).
Peptide text beside a SMILES is read from it.

How the values were obtained:
burn injury = settings: intraperitoneal; during 14 days after burn injury; Dalargin 0.5 mg/kg; control 60%; cited from earlier work
II-IIIA degree burns [1] = experiment: Burn model in rats, hexapeptide as topical 0.02-0.5% solution (Example 3); assay type: in vivo, outbred male rats; settings: for Day on which burn wound hyperaemia score reached 0: after thermal injury; for Day on which burn wound hyperaemia score reached 0 / Burn wound oedema score: topical; for Burn wound oedema score: score 0-3
Method: The efficacy of topical administration of tyrosyl-D-alanyl-glycyl-phenylalanyl-leucyl-arginine in the therapy of thermal burns was evaluated on models of II-IIIA degree burns in 30 outbred male rats. The animals were kept in a vivarium (ambient temperature 19-23° C.) according to Good Laboratory Practices of the Eurasian Economic Union and the applicable guidelines (Reference).
Flat-bottom glass containers of an appropriate diameter filled with liquid paraffin to ⅔ of their volume were used as the thermal agent. The containers were heated on a water bath before application to the skin of the rats, which were randomized to three groups (n=10 in each group): the control group and two experimental groups. Another tissue repair stimulator, dexpanthenol (5% topical ointment), was used as the comparator. All the rats received burns with a standardized area of ≈40 cm^2. Within 20 min. after inflicting the thermal injury, control group animals were treated by applying an aseptic dressing followed by therapy with Iodopiron and Levomecol (group I); animals in the experimental groups additionally received dexpanthenol (group II) or 0.02-0.5% solution of hexapeptide tyrosyl-D-alanyl-glycyl-phenylalanyl-leucyl-arginine (group III consisting of 5 animals that received 0.02% solution and 5 animals that received 0.5% solution).
The experiment involved evaluating the general condition of the animals and performing gross examination to evaluate the severity of tissue oedema in the burn region, hyperaemia, infiltration, appearance of wound discharge and wound epithelialization. These signs were scored as follows: maximum severity of a sign corresponded to a score of 3 points, and absence of a sign to a score of 0. Objective assessment of the healing process was based on planimetric measurements. All the observations were performed on days 1, 3, 5, 7 and 10 of the experiment.
The healing rate was determined using the formula V=(S1−S2)/t, where S1=wound area during the previous measurement, S2=wound area during the next measurement, t=number of days between the previous and the next measurement.
The experiment also included an evaluation of the white blood cell population as a ratio of the total number of lymphocytes to segmented cells in venous blood.

linear wounds = experiment: Linear (planar) skin wound model in rats (Example 4); assay type: in vivo, white male Wistar rats
Method: The study was performed in white male Wistar rats. All the animals were randomized to three groups of 13 rats each: (I) control Group (untreated), (II) comparator Group (Bepanthen topical cream with 5% dexpanthenol) and (III) experimental Group (hexapeptide tyrosyl-D-alanyl-glycyl-phenylalanyl-leucyl-arginine). The Group III consisted of 5 animals that received 0.02% solution and 5 animals that received 0.5% solution.
Linear wounds were modeled by an approximately 4-cm-long longitudinal incision in the skin and subcutaneous fat along the midline of the back. After making the incision, the edges of the wound were brought together, and three sutures were applied at an equal distance. The animals received the study drugs starting on the day of the operation; the control Group received a placebo. In each group, 3 rats were intended for a tensometric study, which required euthanasia on day 7 of the experiment. Samples for a histological evaluation were collected immediately after complete healing (on days 25-26).
The study drugs were applied once daily, every day, for 20 days. The wound healing effect was evaluated based on the clinical course (presence of purulent discharge, dynamics of wound edge attachment) on days 4, 7, 15 and 20 of the experiment.

3rd degree burn = settings: 0.3 mg subcutaneously; cited from earlier work
II-IIIA degree burns [2] = experiment: Burn model in rats, hexapeptide as 0.02% and 0.5% gel (Example 5); assay type: in vivo, outbred male rats; settings: for Average healing rate of burn wounds, difference to control Group I: FIG. 4; for Burn area (planimetry), dynamics of burn wound healing: vs control and Bepanthen
Method: The efficacy of topical administration of hexapeptide tyrosyl-D-alanyl-glycyl-phenylalanyl-leucyl-arginine in the therapy of thermal burns was evaluated on models of II-IIIA degree burns in 40 outbred male rats. The animals were kept in a vivarium according to Good Laboratory Practices of the Eurasian Economic Union and the applicable guidelines (Reference). Flat-bottom glass containers of an appropriate diameter filled with liquid paraffin to ⅔ of their volume were used as a thermal agent. The animals were randomized to four groups (n=10 in each group): Group I was the control group. A popular tissue repair product, Bepanthen (topical cream with 5% dexpanthenol), was used as the comparator. Burn area was standardized at Æ40 cm^2.
An aseptic dressing applied within the first 20 minutes after the burn, followed by therapy with Iodopiron and Levomecol, was used for control Group I. Group II was treated with Bepanthen. Group III received hexapeptide tyrosyl-D-alanyl-glycyl-phenylalanyl-leucyl-arginine as 0.02% topical gel, while Group IV received hexapeptide tyrosyl-D-alanyl-glycyl-phenylalanyl-leucyl-arginine as 0.5% topical gel.
In addition to monitoring the general condition of the animals on days 1, 3, 5, 7 and 10 of the experiment, the healing process was evaluated planimetrically. The healing rate was determined using the formula V=(S1-S2)/t, where S1=wound area during the previous measurement, S2=wound area during the next measurement, t=number of days between the previous and the next measurement.

neutrophils = settings: cited from earlier work

| Molecule | Mortality rate (burn injury) | Day on which burn wound hyperaemia score reached 0 (II-IIIA degree burns [1]) | Burn wound oedema score (II-IIIA degree burns [1]; day 1 after thermal injury) | Burn wound oedema score (II-IIIA degree burns [1]; day 5 after thermal injury) | Burn wound oedema score (II-IIIA degree burns [1]; day 7 after thermal injury) | Tensiometric evaluation, superiority relative to control Group I (linear wounds; day 7 of the experiment) | Healing of the linear wound (visual inspection) (linear wounds; once daily for 20 days, relative to control and comparator, FIG. 3) | Histological evaluation of the scar (linear wounds; samples collected after complete healing (days 25-26)) | Skin repair and productive inflammation (3rd degree burn) | Average healing rate of burn wounds, difference to control Group I (II-IIIA degree burns [2]; 0.02% topical gel (Group III)) | Burn area (planimetry), dynamics of burn wound healing (II-IIIA degree burns [2]; 0.02% topical gel (Group III)) | Average healing rate of burn wounds, difference to control Group I (II-IIIA degree burns [2]; 0.5% topical gel (Group IV)) | Burn area (planimetry), dynamics of burn wound healing (II-IIIA degree burns [2]; 0.5% topical gel (Group IV)) | Reduction of burn area, 0.5% gel (Group IV) relative to 0.02% gel (Group III) (II-IIIA degree burns [2]; not statistically significant) | Effect on activated neutrophils and NADPHase activity (neutrophils; blood of healthy humans (n=27)) | Effect on functional and metabolic activity of neutrophils (neutrophils; peripheral blood samples of burn patients (n=15)) | Reduction of hyperaemia compared with Dexpanthenol (II-IIIA degree burns [1]; topical 0.02-0.5% solution) | Average healing rate of burn wounds, difference to control Group I (II-IIIA degree burns [1]; topical 0.02-0.5% solution, FIG. 1) | Burn area (planimetry), dynamics of burn wound healing (II-IIIA degree burns [1]; topical 0.02-0.5% solution, vs control and Dexpanthenol) | Day on which lymphocyte-neutrophil ratio returned to normal (II-IIIA degree burns [1]; venous blood, topical 0.02-0.5% solution, FIG. 2) |
| --- | --- | --- | --- | --- | --- | --- | --- | --- | --- | --- | --- | --- | --- | --- | --- | --- | --- | --- | --- | --- |
| delta sleep-inducing peptide [DSIP] | 20% | – | – | – | – | – | – | – | – | – | – | – | – | – | – | – | – | – | – | – |
| CC(C)(CO)[C@@H](O)C(=O)NCCCO [Dexpanthenol, dexpanthenol] | – | 7 days | 2.0±0.5 points | 0.7±0.5 points | 0.3±0.3 points | – | – | – | – | – | – | – | – | – | – | – | – | – | – | – |
| CC(C)C[C@H](NC(=O)[C@H](Cc1ccccc1)NC(=O)CNC(=O)[C@@H](C)NC(=O)[C@@H](N)Cc1ccc(O)cc1)C(=O)N[C@@H](CCCNC(=N)N)C(=O)O [tyrosyl-D-alanyl-glycyl-phenylalanyl-leucyl-arginine] (HELM PEPTIDE1{Y.[dA].G.F.L.R}$$$$V2.0) | 75% | 5 days | 1.0±0.4 points | 0.3±0.2 points | 0.0±0.0 points | over than twofold | more rapid healing of the linear wound | fibrous components were dominant in scar tissue relative to cellular components | significant acceleration of skin repair and reduced intensity of productive inflammation | Statistically significant differences | pronounced statistically significant positive dynamics of burn wound healing | Statistically significant differences | pronounced statistically significant positive dynamics of burn wound healing | numerically greater reduction of burn area | increasing the total number of activated neutrophils and NADPHase activity | normalized elevated functional and metabolic activity of neutrophils | statistically significantly more effective | Statistically significant differences | significant reduction of burn area already on day 3 | 7 days |
